Data: patent publication US20120121540A1 (priority 2007, published 2012)

Assay: HCV replicon assay (luciferase reporter, ET cell line)
Format: cell-based
Conditions: Hepatitis C virus, HCV replicon luciferase activity in ET cells
Experimental: A cell line, ET (Huh-lucubineo-ET) is used for screening of compounds for inhibiting HCV RNA dependent RNA polymerase. The ET cell line is stably transfected with RNA transcripts harboring a I389 luc-ubi-neo/NS3-3′/ET; replicon with firefly luciferase-ubiquitin-neomycin phosphotransferase fusion protein and EMCV-IRES driven NS3-5B polyprotein containing the cell culture adaptive mutations (E1202G; T1280I; K1846T) (Krieger at al, 2001 and unpublished). The ET cells are grown in DMEM (Dulbeco's Modified Eagle's Medium), supplemented with 10% fetal calf serum, 2 mM Glutamine, Penicillin (100 IU/mL)/Streptomycin (100 μg/mL), 1× nonessential amino acids, and 250 μg/mL G418 (“Geneticin”). They are all available through Life Technologies (Bethesda, Md.). The cells are plated at 0.5−1.0×10^4 cells/well in the 96 well plates and incubated for 24 hrs before adding test compound. The compounds are added to the cells to achieve a final concentration of 0.1 nM to 50 μm and a final DMSO (dimethylsulfoxide) concentration of 0.5%. Luciferase activity is measured 48-72 hours later by adding a lysis buffer and the substrate (Catalog number Glo-lysis buffer E2661 and Bright-Glo luciferase system E2620 Promega, Madison, Wis.). Cells should not be too confluent during the assay. Percent inhibition of replication data is plotted relative to no compound control. Under the same condition, cytotoxicity of the compounds are determined using cell proliferation reagent, WST-1 (Roche, Germany). The compounds showing antiviral activities, but no significant cytotoxicities are chosen to determine EC50 and TC50. For these determinations, a 10 point, 2-fold serial dilution for each compound was used, which spans a concentration range of 1000 fold. EC50 and similarly TC50 values were calculated by fitting % inhibition at each concentration to the following equation:
% inhibition=100%/[(EC50/[I])^b+1]
where b is Hill's coefficient.
% inhibition values at a specific concentration, […] for example, can also be derived from the equation above.

Row | Compound | inhibition at 10 µM [%]
1 | O=C(NCc1cccs1)c1nn2c(I)cc(-c3ccccc3)cc2c1I [Compound 119, 3,7-diiodo-5-phenyl-pyrazolo[1,5-a]pyridine-2-carboxylic Acid (thiophen-2-ylmethyl)-amide] | 71.5
2 | O=C(NCc1cccs1)c1nn2c(I)cc(-c3ccccc3)cc2c1Br [Compound 120, 3-Bromo-7-iodo-5-phenyl-pyrazolo[1,5-a]pyridine-2-carboxylic Acid (thiophen-2-ylmethyl)-amide] | 66.6
3 | O=C(NCc1cccs1)c1nn2c(I)cc(-c3ccccc3)cc2c1Cl [Compound 121, 3-Chloro-7-iodo-5-phenyl-pyrazolo[1,5-a]pyridine-2-carboxylic Acid (thiophen-2-ylmethyl)-amide] | 73.9
4 | O=C(NCc1cccs1)c1nn2c(C(F)(F)F)cc(-c3ccccc3)cc2c1Cl [Compound 122, 3-Chloro-5-phenyl-7-trifluoromethyl-pyrazolo[1,5-a]pyridine-2-carboxylic Acid (thiophen-2-ylmethyl)-amide] | 94.3
5 | O=C(NCc1ccc(Cl)s1)c1nn2c(C(F)(F)F)cc(-c3ccccc3)cc2c1Cl [Compound 123, 3-Chloro-5-phenyl-7-trifluoromethyl-pyrazolo[1,5-a]pyridine-2-carboxylic Acid (5-chloro-thiophen-2-ylmethyl)-amide] | 46.1
6 | O=C(NCc1ccco1)c1cc2cc(-c3ccccc3)cc(I)n2n1 [Compound 124, 7-Iodo-5-phenyl-pyrazolo[1,5-a]pyridine-2-carboxylic Acid (furan-2-ylmethyl)-amide] | 54.3
7 | O=C(NCCc1cccs1)c1cc2cc(-c3ccccc3)cc(I)n2n1 [Compound 125, 7-Iodo-5-phenyl-pyrazolo[1,5-a]pyridine-2-carboxylic Acid (2-thiophen-2-yl-ethyl)-amide] | 48
8 | O=C(NCc1ccccc1F)c1cc2cc(-c3ccccc3)cc(I)n2n1 [Compound 128, 7-Iodo-5-phenyl-pyrazolo[1,5-a]pyridine-2-carboxylic Acid 2-fluoro-benzylamide] | 65.2
9 | O=C(NCc1ccccc1)c1cc2cc(-c3ccccc3)cc(I)n2n1 [Compound 129, 7-Iodo-5-phenyl-pyrazolo[1,5-a]pyridine-2-carboxylic Acid benzylamide] | 43
10 | O=C(NCCc1ccccc1)c1cc2cc(-c3ccccc3)cc(I)n2n1 [Compound 130, 7-Iodo-5-phenyl-pyrazolo[1,5-a]pyridine-2-carboxylic Acid phenethyl-amide] | 32.3
11 | O=C(NCC1CCCO1)c1cc2cc(-c3ccccc3)cc(I)n2n1 (stereo not drawn) [Compound 131, 7-Iodo-5-phenyl-pyrazolo[1,5-a]pyridine-2-carboxylic Acid (tetrahydro-furan-2-ylmethyl)-amide] | 49.2
12 | O=C(NCc1cccs1)c1cc2cc(-c3ccco3)cc(C(F)(F)Cl)n2n1 [Compound 133, 7-(Chloro-difluoro-methyl)-5-furan-2-yl-pyrazolo[1,5-a]pyridine-2-carboxylic Acid (thiophen-2-ylmethyl)-amide] | 99.8
13 | O=C(NCc1cccs1)c1cn2cc(-c3ccccc3)cc(C(F)(F)F)c2n1 [Compound 137, 6-Phenyl-8-trifluoromethyl-imidazo[1,2-a]pyridine-2-carboxylic Acid (thiophen-2-ylmethyl)-amide] | 63
14 | O=C(NCc1cccs1)c1cn2cc(-c3ccco3)cc(C(F)(F)F)c2n1 [Compound 138, 6-Furan-2-yl-8-trifluoromethyl-imidazo[1,2-a]pyridine-2-carboxylic Acid (thiophen-2-ylmethyl)-amide] | 92.1
15 | O=C(NCc1cccs1)c1nc2c(C(F)(F)F)cc(-c3ccccc3)cn2c1Br [Compound 139, 3-Bromo-6-phenyl-8-trifluoromethyl-imidazo[1,2-a]pyridine-2-carboxylic Acid (thiophen-2-ylmethyl)-amide] | 97.9
16 | O=C(NCc1cccs1)c1cc2cc(-c3ccco3)cc(Cl)n2n1 [Compound 145, 7-Chloro-5-furan-2-yl-pyrazolo[1,5-a]pyridine-2-carboxylic Acid (thiophen-2-ylmethyl)-amide] | 49.8
17 | CN(Cc1cccs1)C(=O)c1cn2cc(-c3ccco3)cc(C(F)(F)F)c2n1 [Compound 146, 6-Furan-2-yl-8-trifluoromethylimidazo[1,2-a]pyridine-2-carboxylic Acid Methyl-thiophen-2-ylmethyl-amide] | 35.1
18 | CN(Cc1cccs1)C(=O)c1cc2cc(-c3ccccc3)cc(C(F)(F)F)n2n1 [Compound 147, 5-phenyl-7-trifluoromethyl-pyrazolo[1,5-a]pyridine-2-carboxylic Acid methyl-thiophen-2-ylmethyl-amide] | 26.8
19 | O=C(NCc1cccs1)c1cc2cc(-c3ccccc3)cc(N3CCOCC3)n2n1 [Compound 148, 7-Morpholin-4-yl-5-phenyl-pyrazolo[1,5-a]pyridine-2-carboxylic Acid (thiophen-2-ylmethyl)-amide] | 27.7
20 | CN(C)c1cc(-c2ccccc2)cc2cc(C(=O)NCc3cccs3)nn12 [Compound 150, 7-dimethylamino-5-phenyl-pyrazolo[1,5-a]pyridine-2-carboxylic Acid (thiophen-2-ylmethyl)-amide] | 43.5
21 | O=C(NCc1cccs1)c1nc2c(C(F)(F)F)cc(-c3ccco3)cn2c1Cl [Compound 152, 3-Chloro-6-furan-2-yl-8-trifluoromethyl-imidazo[1,2-a]pyridine-2-carboxylic acid (thiophen-2-ylmethyl)-amide] | 92.5
22 | O=C(NCc1cccs1)c1cc2cc(-c3ccccc3)cc(NCCO)n2n1 [Compound 154, 7-(2-Hydroxy-ethylamino)-5-phenyl-pyrazolo[1,5-a]pyridine-2-carboxylic acid (thiophen-2-ylmethyl)-amide] | 58.8
23 | Cc1c(C(=O)NCc2cccs2)nc2c(C(F)(F)F)cc(-c3ccco3)cn12 [Compound 156, 6-Furan-2-yl-3-methyl-8-trifluoromethyl-imidazo[1,2-a]pyridine-2-carboxylic acid (thiophen-2-ylmethyl)-amide] | 89.3
24 | O=C(NCc1cccs1)c1nc2c(C(F)(F)F)cc(-c3ccoc3)cn2c1Cl [Compound 157, 3-Chloro-6-furan-3-yl-8-trifluoromethyl-imidazo[1,2-a]pyridine-2-carboxylic acid (thiophen-2-ylmethyl)-amide] | 97.8
25 | O=C(NCc1ccco1)c1nc2c(C(F)(F)F)cc(-c3ccco3)cn2c1Cl [Compound 158, 3-Chloro-6-furan-2-yl-8-trifluoromethyl-imidazo[1,2-a]pyridine-2-carboxylic acid (furan-2-ylmethyl)-amide] | 88.5
26 | O=C(NCc1ccoc1)c1nc2c(C(F)(F)F)cc(-c3ccco3)cn2c1Cl [Compound 159, 3-Chloro-6-furan-2-yl-8-trifluoromethyl-imidazo[1,2-a]pyridine-2-carboxylic acid (furan-3-ylmethyl)-amide] | 94.8
27 | O=C(NCc1cccs1)c1nc2c(C(F)(F)F)cc(-c3ccsc3)cn2c1Cl [Compound 160, 3-Chloro-6-thiophen-3-yl-8-trifluoromethyl-imidazo[1,2-a]pyridine-2-carboxylic acid (thiophen-2-ylmethyl)-amide] | 97.3
